Results: the supplement of paper PMC10307832

Experiments:
Assay in all cases: relative viability (nuclei count vs DMSO), 5 days (fraction); higher = more cells survive
Vandetanib + Pemetrexed = compound: COc1cc2/c(=N/c3ccc(Br)cc3F)nc[nH]c2cc1OCC1CCN(C)CC1 [Vandetanib] + Nc1nc2[nH]cc(CCc3ccc(C(=O)N[C@@H](CCC(=O)O)C(=O)O)cc3)c2c(=O)[nH]1 [Pemetrexed] (partner 0.2 µM)
How it was run: (§1)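 Relative viability divides the nuclei count in treated wells by that in vehicle wells. Lung cancer cell lines were seeded in 1536-well plates, dosed by pin tool the next day, and fixed and stained after 5 days in one step with final 0.05% Triton X-100, 1% formaldehyde and 1 ug/ml Hoechst. Dosing was a single drug or a fixed anchor-drug dose plus five library-drug doses (not always all listed) in √10 steps, and values are medians of duplicate plates imaged at 4×.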

CUDC-101 + AZD7762 = compound: C#Cc1cccc(Nc2ncnc3cc(OC)c(OCCCCCCC(=O)NO)cc23)c1 [CUDC-101] + NC(=O)Nc1cc(-c2cccc(F)c2)sc1C(=O)N[C@H]1CCCNC1 [AZD7762] (partner 0.2 µM)
How it was run: as §1

NVP-TAE684 + Decitabine = compound: COc1cc(N2CCC(N3CCN(C)CC3)CC2)ccc1Nc1ncc(Cl)c(Nc2ccccc2S(=O)(=O)C(C)C)n1 [NVP-TAE684] + Nc1ncn([C@H]2C[C@H](O)[C@@H](CO)O2)c(=O)n1 [Decitabine] (partner 2 µM)
How it was run: as §1

[1] = compound: C1=CC=C2C(=C1)N=C(S2)C(C#N)C3=NC(=NC=C3)NCCC4=CN=CC=C4 + CC(C)C[C@H](NC(=O)[C@H](Cc1ccccc1)NC(=O)c1cnccn1)B(O)O [Bortezomib] (partner 0.002 µM)
How it was run: as §1

| Cell Line | relative viability (Vandetanib + Pemetrexed; first compound 0.02 µM) | relative viability (Vandetanib + Pemetrexed; first compound 0.06325 µM) | relative viability (Vandetanib + Pemetrexed; first compound 0.2 µM) | relative viability (Vandetanib + Pemetrexed; first compound 0.6325 µM) | relative viability (Vandetanib + Pemetrexed; first compound 2 µM) | relative viability (CUDC-101 + AZD7762; first compound 0.01 µM) | relative viability (CUDC-101 + AZD7762; first compound 0.03162 µM) | relative viability (CUDC-101 + AZD7762; first compound 0.1 µM) | relative viability (CUDC-101 + AZD7762; first compound 0.3162 µM) | relative viability (CUDC-101 + AZD7762; first compound 1 µM) | relative viability (NVP-TAE684 + Decitabine; first compound 0.2 µM) | relative viability (NVP-TAE684 + Decitabine; first compound 0.6325 µM) | relative viability (NVP-TAE684 + Decitabine; first compound 2 µM) | relative viability ([1]; first compound 0.005 µM) | relative viability ([1]; first compound 0.01581 µM) | relative viability ([1]; first compound 0.05 µM) | relative viability ([1]; first compound 0.1581 µM) | relative viability ([1]; first compound 0.5 µM) |
| --- | --- | --- | --- | --- | --- | --- | --- | --- | --- | --- | --- | --- | --- | --- | --- | --- | --- | --- |
| LCLC-103H | 0.497 | 0.493 | 0.478 | 0.48 | 0.5 | 0.674 | 0.739 | 0.761 | 0.877 | 0.675 | 0.7 | 0.69 | 0.683 | 0.96 | 0.984 | 1.07 | 1.23 | 0.91 |
| NCI-H1666 | 0.793 | 0.879 | 0.881 | 0.803 | 0.874 | 0.943 | 0.741 | 0.879 | 0.92 | 0.641 | 0.71 | 0.732 | 0.597 | 1.12 | 0.867 | 0.673 | 0.899 | 0.822 |
| NCI-H460 | 0.0623 | 0.0604 | 0.0622 | 0.0619 | 0.0589 | 0.651 | 0.531 | 0.564 | 0.589 | 0.476 | 0.535 | 0.51 | 0.294 |  | 1.09 | 1.08 | 1.42 | 0.609 |
